# Molecular target: Nucleotide-binding oligomerization domain-containing protein 2 (Homo sapiens, UniProt Q9HC29)
# Experiment: NOD2 inhibitors, SAR follow-up, set 2 (AID 2475)
# Nucleotide-binding oligomerization domain-containing protein 2, sequence (Q9HC29 whole entry, the tested form may be a part): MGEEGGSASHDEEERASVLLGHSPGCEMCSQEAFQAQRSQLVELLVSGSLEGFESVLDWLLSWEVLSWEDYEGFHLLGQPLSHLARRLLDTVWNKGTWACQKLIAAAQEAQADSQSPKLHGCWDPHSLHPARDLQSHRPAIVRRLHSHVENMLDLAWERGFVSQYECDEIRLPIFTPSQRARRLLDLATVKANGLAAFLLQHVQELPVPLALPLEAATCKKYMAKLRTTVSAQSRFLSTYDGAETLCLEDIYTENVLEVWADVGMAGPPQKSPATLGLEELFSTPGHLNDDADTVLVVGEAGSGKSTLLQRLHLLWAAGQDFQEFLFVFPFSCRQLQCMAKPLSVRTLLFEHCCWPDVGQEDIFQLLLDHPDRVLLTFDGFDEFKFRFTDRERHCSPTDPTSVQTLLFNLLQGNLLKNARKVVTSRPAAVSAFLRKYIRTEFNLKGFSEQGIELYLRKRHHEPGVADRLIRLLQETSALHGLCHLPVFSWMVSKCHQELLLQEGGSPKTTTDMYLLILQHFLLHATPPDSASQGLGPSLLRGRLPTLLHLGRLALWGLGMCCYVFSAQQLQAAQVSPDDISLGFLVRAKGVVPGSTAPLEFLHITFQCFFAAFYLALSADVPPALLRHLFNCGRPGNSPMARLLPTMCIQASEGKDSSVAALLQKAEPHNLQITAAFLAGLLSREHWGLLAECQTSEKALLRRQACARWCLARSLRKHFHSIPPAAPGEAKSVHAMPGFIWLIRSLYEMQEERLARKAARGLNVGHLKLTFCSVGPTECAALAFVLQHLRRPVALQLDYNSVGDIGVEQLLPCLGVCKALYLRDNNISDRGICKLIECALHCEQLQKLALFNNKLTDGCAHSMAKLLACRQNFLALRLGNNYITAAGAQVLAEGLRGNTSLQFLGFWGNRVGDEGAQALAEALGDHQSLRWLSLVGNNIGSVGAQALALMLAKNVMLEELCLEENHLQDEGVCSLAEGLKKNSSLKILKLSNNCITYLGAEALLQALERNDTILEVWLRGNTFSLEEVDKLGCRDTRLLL
row,Compound,IC50 [µM]
1,Cc1cc(SCC(=O)OCC(=O)C(C#N)c2nc3ccccc3[nH]2)c(C)cc1Br (configuration not stated),5.19
2,Cc1ccc(C)c(SCC(=O)OCC(=O)C(C#N)c2nc3ccccc3[nH]2)c1 (configuration not stated) [MLS000392255],4.21

# Source: BindingDB's records for doi:10.7270/Q2JW8CBM (Burnham Center For Chemical Genomics, 2010)
